# Laboratory results from patent publication US6066642A, “Dihydropyridine-, pyridine-, benzopyran-4-one- and triazoloquinazoline derivative, their preparation and their use as adenosine receptor antagonists” (priority 1998, dated 2000).
# Read-outs that look alike come from different tables or passages of the source.
# What was measured:
# A1 receptors = molecular target: T1, A1 receptors (Rattus norvegicus, UniProt P25099); assay: biochemical; type: binding; settings: for inhibition at 100 µM: 10^-4 M; for Ki: [3H]PIA, rat brain membranes, read-out: Ki rA1; for greater affinity to A1 than A2a adenosine receptors: selectivity in words
# T1 sequence (P25099 1-326): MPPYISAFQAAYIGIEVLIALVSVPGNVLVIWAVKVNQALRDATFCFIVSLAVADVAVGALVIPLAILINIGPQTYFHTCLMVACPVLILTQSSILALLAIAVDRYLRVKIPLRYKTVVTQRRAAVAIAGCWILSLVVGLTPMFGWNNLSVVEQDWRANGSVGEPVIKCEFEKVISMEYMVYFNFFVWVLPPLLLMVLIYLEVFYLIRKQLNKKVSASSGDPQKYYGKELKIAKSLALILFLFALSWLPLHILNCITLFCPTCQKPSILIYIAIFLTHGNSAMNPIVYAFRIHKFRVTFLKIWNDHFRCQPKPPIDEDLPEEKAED
# Experimental: ^a Displacement of specific [^3 H] PIA binding in rat brain
# percentage of specific binding displaced at 100 μM.
# A2a receptors = molecular target: T2, A2a receptors (Rattus norvegicus, UniProt P30543); assay: radioligand binding, displacement of specific [3H]CGS 21680 binding in rat striatal membranes; settings: for inhibition at 100 µM: 10^-4 M; for Ki: [3H]CGS 21680, rat striatal membranes
# T2 construct: Displacement of specific [^3 H]; from tissue; host or cells: rat striatal membranes
# T2 sequence (P30543 whole entry): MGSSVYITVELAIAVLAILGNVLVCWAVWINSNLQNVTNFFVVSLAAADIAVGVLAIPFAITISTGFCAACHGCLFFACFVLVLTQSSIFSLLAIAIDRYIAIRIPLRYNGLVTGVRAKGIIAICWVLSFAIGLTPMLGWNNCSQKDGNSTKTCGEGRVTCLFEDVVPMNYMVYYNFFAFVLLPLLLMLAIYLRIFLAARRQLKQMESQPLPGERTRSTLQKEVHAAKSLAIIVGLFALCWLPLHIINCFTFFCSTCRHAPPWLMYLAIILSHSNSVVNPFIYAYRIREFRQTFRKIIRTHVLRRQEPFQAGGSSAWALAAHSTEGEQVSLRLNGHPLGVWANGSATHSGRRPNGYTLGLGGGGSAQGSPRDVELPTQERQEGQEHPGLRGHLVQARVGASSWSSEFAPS
# Experimental: ^b Displacement of specific [^3 H]
# or as a percentage of specific binding displaced at 100 μM.
# [1] = Table 12, read-out: % inhibition rA1
# [2] = Table 12, read-out: % inhibition rA2A
# [3] = Table 12, read-out: displacement of specific binding rA1
# [4] = Table 12, read-out: displacement of specific binding rA2A
compound,measurement,setting,value
CCOC(=O)C1=C(C)NC(c2ccccc2)=C(C(=O)OCc2ccc(C(F)(F)F)cc2)C1C#Cc1ccccc1 (racemic) [Compound 122d],inhibition at 100 µM,A1 receptors; [1],32 ± 3%
same,inhibition at 100 µM,A2a receptors; [2],15%
"CCOC(=O)C1=C(C)N(COC)C(c2ccccc2)=C(C(=O)OCC[Si](C)(C)C)C1C#Cc1ccccc1 (racemic) [Compound 137, 1-Methoxymethyl 3-ethyl 5-(2-trimethylsilyl)-ethyl 2-methyl-4-phenylethynyl-6-phenyl-1,4-(±)-dihydropyridine-3,5-dicarboxylate]",inhibition at 100 µM,A1 receptors; [3],< 10%
same,inhibition at 100 µM,A2a receptors; [2],27 ± 4%
"CCOC(=O)C1=C(C)NC(c2ccccc2)=C(C(=O)OCc2cccc([N+](=O)[O-])c2)C1C#Cc1ccccc1 (racemic) [Compound 122f, 3-Ethyl 5-(3-nitrobenzyl)-4-phenylethynyl-6-phenyl-1,4(±)-dihydropyridine-3,5-dicarboxylate]",inhibition at 100 µM,A1 receptors; [1],28 ± 2%
same,inhibition at 100 µM,A2a receptors; [4],< 10%
"CCOC(=O)C1=C(C)NC(C)=C(C(=O)OC)C1c1ccc([N+](=O)[O-])cc1 (racemic) [Compound 67, 3-methyl-5-ethyl-2,6-dimethyl-4-(4-nitrophenyl)-1,4(R,S)-dihydropyridine-3,5-dicarboxylate]",inhibition at 100 µM,"A1 receptors; Table 9, read-out: % of specific binding displaced rA1",37 ± 14%
same,Ki,"A2a receptors; Table 9, read-out: Ki rA2A",35.6 µM
"O=c1c(O)c(-c2ccc(O)cc2O)oc2cc(O)cc(O)c12 [Compound 5a, 2',3,4',5,7-pentahydroxyflavone, reference compound]",Ki,A1 receptors; Table 3,13.8 µM
same,Ki,"A2a receptors; Table 3, read-out: Ki rA2a",17.3 µM
"CCOC(=O)C1=C(C)NC(c2ccccc2)=C(C(=O)OCCCc2ccccc2)C1C#Cc1ccccc1 (racemic) [Compound 126, 3-Ethyl 5-phenylpropyl 2-methyl-4-phenylethynyl-6-phenyl-1,4-(±)-dihydropyridine-3,5-dicarboxylate]",inhibition at 100 µM,A1 receptors; [3],< 10%
same,inhibition at 100 µM,A2a receptors; [4],< 10%
"COC(=O)C1=C(C)NC(C)=C([N+](=O)[O-])C1c1ccccc1C(F)(F)F (stereo not drawn) [Compound 70, reference compound]",greater affinity to A1 than A2a adenosine receptors,A1 receptors,greater affinity to A1 adenosine receptors than A2a receptors
"CCOC(=O)C1=C(C)NC(c2ccccc2)=C(C(=O)OCCc2ccccc2)C1C#Cc1ccccc1 (racemic) [Compound 125, 3-Ethyl 5-phenylethyl 2-methyl-4-phenylethynyl-6-phenyl-1,4-(±)-dihydropyridine-3.5-dicarboxylate]",inhibition at 100 µM,A1 receptors; [3],< 10%
same,inhibition at 100 µM,A2a receptors; [4],< 10%
"COc1cc(OC)c2c(=O)c(OC)c(-c3ccccc3)oc2c1 [Compound 2, 3,5,7-Trimethoxyflavone]",Ki,A1 receptors; Table 3,0.509 ± 0.049 µM
same,Ki,"A2a receptors; Table 3, read-out: Ki rA2a",6.45 ± 1.48 µM
"CCCn1c(=O)n2nc(-c3ccco3)nc2c2cc(Cl)ccc21 [Compound 159, 9-Chloro-2-(2-furyl)[1,2,4]triazolo[1,5-c]quinazolin-6-propyl-5-one]",Ki,A1 receptors; Table 15,2 µM
CCOC(=O)C1=C(C)NC(c2ccccc2)=C(C(=O)OCc2ccccc2)C1C#Cc1ccccc1 (stereo not drawn) [Compound 121],inhibition at 100 µM,A1 receptors; [1],25 ± 4%
"O=C1CC(c2ccccc2)Oc2ccccc21 (stereo not drawn) [Compound 12, flavanone, reference compound]",Ki,A1 receptors; Table 4,32 ± 4.8 µM
"COC(=O)C1=C(C)NC(C)=C([N+](=O)[O-])C1c1ccccc1C(F)(F)F (stereo not drawn) [Compound 69, reference compound]",greater affinity to A1 than A2a adenosine receptors,A1 receptors,greater affinity to A1 adenosine receptors than A2a receptors
CCOC(=O)C1=C(C)NC(c2ccccc2)=C(C(=O)OCc2ccc([N+](=O)[O-])cc2)C1C#Cc1ccccc1 (racemic) [Compound 122g],inhibition at 100 µM,A1 receptors; [1],29 ± 2%
"CCOC(=O)C1=C(c2ccccc2)NC(C)=C(C(=O)OC(C)(C)C)C1C#Cc1ccccc1 (racemic) [Compound 133, 3-t-Butyl 5-ethyl 2-methyl-4-phenylethynyl-6-phenyl-1,4-(±)-dihydropyridine-3,5-dicarboxylate]",inhibition at 100 µM,A2a receptors; [2],20 ± 2%
CCOC(=O)C1=C(C)NC(c2ccc(C)cc2)=C(C(=O)OCC)C1/C=C/c1ccccc1 (stereo not drawn) [Compound 88],inhibition at 100 µM,"A2a receptors; Table 11, read-out: % inhibition rA2A",37%
